Eleven molecules from US7504399B2, “Piperazine enamines as antiviral agents” (priority 2006, dated 2009) can be followed below.

Usually EC50 stands for the concentration at which the effect is half-maximal.

This experiment concerns HIV-1 single-round infectious reporter virus. The experiment in a line: Single-round infectious HIV-1 luciferase reporter virus infection assay in HeLa CD4 cells. The format is cell-based. The settings on record: Human immunodeficiency virus 1, HeLa, 72 h, read-out: EC50 Group from Table 1. As for the experimental part: • Virus production-Human embryonic Kidney cell line, 293T, was propagated in Dulbecco's Modified Eagle Medium (Invitrogen, Carlsbad, Calif.) containing 10% fetal Bovine serum (FBS, Sigma, St. Louis, Mo.). • Virus infection—Human epithelial cell line, HeLa, expressing the HIV-1 receptor CD4 was propagated in Dulbecco's Modified Eagle Medium (Invitrogen, Carlsbad, Calif.) containing 10% fetal Bovine serum (FBS, Sigma, St. Louis, Mo.) and supplemented with 0.2 mg/mL Geneticin (Invitrogen, Carlsbad, Calif.). Virus-Single-round infectious reporter virus was produced by co-transfecting human embryonic Kidney 293 cells with an HIV-1 envelope DNA expression vector and a proviral cDNA containing an envelope deletion mutation and the luciferase reporter gene inserted in place of HIV-1 nef sequences (Chen et al., Ref. 41). Transfections were performed using lipofectAMINE PLUS reagent as described by the manufacturer (Invitrogen, Carlsbad, Calif.). Experiment • 1. HeLa CD4 cells were plated in 96 well plates at a cell density of 1×10^4 cells per well in 100 μl Dulbecco's Modified Eagle Medium containing 10% fetal Bovine serum and incubated overnight. • 2. Compound was added in a 2 μl dimethylsulfoxide solution, so that the final assay concentration would be ≦10 μM. • 3. 100 μl of single-round infectious reporter virus in Dulbecco's Modified Eagle Medium was then added to the plated cells and compound at an approximate multiplicity of infection (MOI) of 0.01, resulting in a final volume of 200 μl per well. • 4. Virally-infected cells were incubated at 37 degrees Celsius, in a CO2 incubator, and harvested 72 h after infection. • 5. Viral infection was monitored by measuring luciferase expression from viral DNA in the infected cells using a luciferase reporter gene assay kit, as described by the manufacturer (Roche Molecular Biochemicals, Indianapolis, Ind.). Infected cell supernatants were removed and 50 μl of lysis buffer was added per well. After 15 minutes, 50 μl of freshly-reconstituted luciferase assay reagent was added per well. Luciferase activity was then quantified by measuring luminescence using a Wallac microbeta scintillation counter. • 6. The percent inhibition for each compound was calculated by quantifying the level of luciferase expression in cells infected in the presence of each compound as a percentage of that observed for cells infected in the absence of compound and subtracting such a determined value from 100. • 7. An EC50 provides a method for comparing the antiviral potency of the compounds of this disclosure. The effective concentration for fifty percent inhibition (EC50) was calculated with the Microsoft Excel Xlfit curve fitting software. For each compound, curves were generated from percent inhibition calculated at 10 different concentrations by using a four paramenter logistic model (model 205). Table 1 is the key for the data in Table 2. Results
For `N#C/C=C(\c1ccccc1)N1CCN(C(=O)C(=O)c2c[nH]c3ccccc23)CC1` [EN-01], the EC50 was under 1 µM.

For the molecule `N#CC(C#N)=C(c1ccccc1)N1CCN(C(=O)C(=O)c2c[nH]c3ccccc23)CC1` [EN-02, 2-((4-(2-(1H-indol-3-yl)-2-oxoacetyl)piperazin-1-yl)(phenyl)methylene)malononitrile], the EC50 was under 1 µM.

Take `N#C/C=C(\c1ccccc1)N1CCN(C(=O)C(=O)c2c[nH]c3c(Br)ccc(F)c23)CC1` [EN-03]: the EC50 is under 1 µM.

Turning to `COc1cnc(-n2cnc(C)n2)c2[nH]cc(C(=O)C(=O)N3CCN(/C(=C/C#N)c4ccccc4)CC3)c12` [EN-05], the EC50 is under 1 µM.

Take `COc1cnc(-n2ccnn2)c2[nH]cc(C(=O)C(=O)N3CCN(/C(=C/C#N)c4ccccc4)CC3)c12` [EN-06]: the EC50 was under 1 µM.

Take `COc1cnc(-n2ccnn2)c2[nH]cc(C(=O)C(=O)N3CCN(C(=C(C#N)C#N)c4ccccc4)CC3)c12` [EN-07]: the EC50 was under 1 µM.

`N#CC(C#N)=C(c1ccccc1)N1CCN(C(=O)C(=O)c2c[nH]c3c(-n4ccnn4)ncc(F)c23)CC1` [EN-08, 2-((4-(2-(4-fluoro-7-(1H-1,2,3-triazol-1-yl)-1H-pyrrolo[2,3-c]pyridin-3-yl)-2-oxoacetyl)piperazin-1-yl)(phenyl)methylene)malononitrile]: the EC50 was under 1 µM.

Take `O=C(O)/C=C(\c1ccccc1)N1CCN(C(=O)C(=O)c2c[nH]c3cccc(F)c23)CC1` [EN-09]: the half-maximal effective concentration (EC50) was under 1 µM.

For `COc1cnc(Cl)c2[nH]cc(C(=O)C(=O)N3CCN(C(=C(C#N)C#N)c4ccccc4)CC3)c12` [EN-10], the EC50 is under 1 µM.

On to `N#CC(C#N)=C(c1ccccc1)N1CCN(C(=O)C(=O)c2c[nH]c3cccc(F)c23)CC1` [EN-11, 2-((4-(2-(4-fluoro-1H-indol-3-yl)-2-oxoacetyl)piperazin-1-yl)(phenyl)methylene)malononitrile], for which the EC50 is under 1 µM.

Turning to `COc1cnc(Cl)c2[nH]cc(C(=O)C(=O)N3CCN(/C(=C/C#N)c4ccccc4)CC3)c12` [EN-13], the EC50 was under 1 µM.
